Experimental data from US20190352297A1, “SELECTIVE AURORA A KINASE INHIBITORS” (UNIVERSITAT BERN, priority 2017, published 2019).

Assays:
Aurora B (pH3) = conditions: pH 3; read-out: cellular IC50 (pH3) (reported); cited from earlier work
Aurora A (pT288) = conditions: read-out: cellular IC50 (pT288) (reported); cited from earlier work
Aurora A (Trp277) = target: T1, Aurora A (Trp277) (Homo sapiens, UniProt O14965); assay: Intrinsic tryptophan fluorescence; assay type: binding
T1 construct: human Aurora A kinase domain (residues 122-403 in the pET24-d vector); His-tag (cleaved yes); made in house; host or cells: E. coli BL21 (DE3) Rosetta
T1 sequence (O14965 122-403): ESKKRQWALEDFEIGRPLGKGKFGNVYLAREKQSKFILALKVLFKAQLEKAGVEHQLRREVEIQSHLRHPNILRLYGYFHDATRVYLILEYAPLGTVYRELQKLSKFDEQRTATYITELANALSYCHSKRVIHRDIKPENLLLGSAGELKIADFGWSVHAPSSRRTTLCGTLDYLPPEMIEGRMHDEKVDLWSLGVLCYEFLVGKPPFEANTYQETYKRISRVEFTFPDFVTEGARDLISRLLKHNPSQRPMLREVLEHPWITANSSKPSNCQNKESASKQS
Description: Binding experiments were performed by mixing Aurora A (500 nM, 375 nM, and 150 nM for 77, 9, and 88, respectively) with varying concentrations (0-100 μM) of the different compounds in buffer (final DMSO concentration 1%), followed by incubation for 15 min at room temperature. Tryptophan fluorescence spectra were recorded at room temperature using an Infinite M1000 Pro plate reader (Tecan) and Corning 96 well half area, flat bottom, non-binding surface, black polystyrene plates. Excitation occurred at 284 nm (bandwidth ±5 nm) and emission at 340 nm (bandwidth ±10 nm). The gain was calculated from the well with the highest protein concentration. Each measurement was done in triplicate.

[1] = system: phospho-Histone H3 Ser10 (Aurora B); assay: Phospho-Histone H3 Ser10 in cells (Aurora B activity); assay type: cell-based, human; conditions: treated cells
Description: (§1) HeLa Kyoto cells were cultured in high-glucose DMEM with GlutaMAX (Life Technologies) media supplemented with 10% fetal calf serum (FCS) in a humidified 5% CO2 incubator at 37° C. For plasmid transfections, cells were seeded at 80-90% confluence. 4 μg of plasmid DNA in 100 μl OptiMEM and 4 μl of Lipofectamine 2000 (Life Technologies) in 100 μl OptiMEM were incubated in parallel for 5 minutes, mixed for 20 minutes and added to each well. All Aurora A clones were constructed using full-length Aurora A as a template with appropriate PCR primer pairs. […] GFP-Aurora AR137A and GFP-Aurora AW277A were engineered using a site directed mutagenesis kit (Agilent Technologies, no. 210515) with appropriate primers. For determining the mitotic index and the chromosome misalignment phenotype, cells were incubated with various concentrations of compounds for 20 h before analysis. Cells were likewise treated with 0.25 μM MLN8237 (Selleckchem, no. S1133) or 5 μM ZM447439 (Selleckchem, no. S1103). For flow cytometry analysis, 50 nM […] and 2.5 μM ZM447439 were used. For rescue experiments, HeLa Kyoto cells were first transfected with GFP-Aurora A, GFP-Aurora AR137A or GFP-Aurora AW277A for 20 h, followed by incubation with 9 for another 20 h before cells were fixed with cold methanol and stained. To assess the impact of compound 9 on cell cycle progression, DNA content was analyzed after propidium iodide staining using FACS (BD Accuri C6 flow cytometer).
(§2) For immunofluorescence, cells were fixed in cold methanol, washed in PBT (PBS supplemented with 0.05% Tween-20) and stained with the following primary antibodies: 1:200 rabbit anti-pT288 (Cell Signaling, C39D8), 1:200 rabbit anti-pH3S10 (Cell Signaling, D2C8), 1:500 mouse anti-α-tubulin (Transduction Laboratories, 612709), 1:300 mouse anti-GFP (MAB3580, Millipore), 1:200 anti-TPX2 (Santa Cruz Biotechnology, sc-32863), anti-Aurora A (Invitrogen, 458900). Secondary antibodies were anti-mouse conjugated to Alexa488 or Alexa568, as well as anti-rabbit conjugated to Alexa488 or Alexa568, all used at 1:500 (Invitrogen). Confocal images were acquired on a Zeiss LSM 710 confocal microscope equipped with a Axiocam MRm (B/VVW) CCD camera using a 63×NA 1.0 oil objective and processed in ImageJ and Adobe Photoshop, maintaining relative image intensities within a series.

HeLa Kyoto cells [2] = assay: DNA content analysis by flow cytometry; assay type: cell-based, human; conditions: 48 h, 9 even at 10 μM
Description: as §1, with “For rescue experiments, HeLa Kyoto cells were first transfected with GFP-Aurora A, GFP-Aurora AR137A or GFP-Aurora AW277A for 20 h, followed by incubation with 9 for another 20 h before cells were fixed with cold methanol and stained.” left out

Aurora A kinase domain = target: T2, Aurora A kinase domain (Homo sapiens, UniProt O14965); assay: HTRF kinase assay, Aurora A; assay type: biochemical
T2 construct: human Aurora A kinase domain (residues 122-403 in the pET24-d vector); His-tag (cleaved yes); made in house; host or cells: E. coli BL21 (DE3) Rosetta
T2 sequence (O14965 122-403): T1 sequence (O14965 122-403)
Description: The clone of human Aurora A kinase domain (residues 122-403 in the pET24-d vector) was kindly provided by the Montoya laboratory (University of Copenhagen). The construct was transformed into E. coli BL21 (DE3) Rosetta cells and protein expression was induced with 0.5 mM IPTG at 20° C. for 12 hours. The cells were harvested at 6,000×g for 25 min at 4° C. and resuspended in lysis buffer (50 mM Tris-HCl, 500 mM NaCl, 1 mM PMSF, pH=8.0). Disruption of the cells was performed by sonication cooled on ice, after which the debris were removed by centrifugation at 110,000×g for 30 min at 4° C. Aurora A was purified by affinity chromatography using NiNTA resin from Qiagen following the manufacturer's instructions. After loading, the resin was washed with lysis buffer, followed by a second wash with 6% elution buffer (50 mM Tris-HCl, 500 mM NaCl, 500 mM imidazole, pH=8.0). Protein was eluted with 100% elution buffer. The eluate was exchanged into final buffer (20 mM Tris-HCl, 200 mM NaCl, 0.5 mM EDTA, 2 mM DTT, pH=8.0) using a HiPrep 26/10 desalting column (GE Healthcare). The His-tag was cleaved with TEV protease at 4° C. overnight. […] Protein concentration was determined by UV absorbance. […]
Aurora A and AuroraB kinases were assayed using the homogeneous time-resolved fluorescence (HTRF) KinEASE STK2 kit from Cisbio (France). […] After incubation at room temperature for one hour, fluorescence was measured at 620 nm (europium cryptate) and 665 nm (XL-665) after excitation at 317 nm (lag time 60 μs, integration time 500 μs) using a Tecan Infinite M1000 PRO microplate reader (Greiner 384-well plates, white, non-binding, small volume). The ratio of fluorescence (665 nm/620 nm) was calculated for each well and the results were expressed as follows: specific signal=ratio (sample)−ratio (negative control), where ratio=665 nm/620 nm×10^4. Compounds were measured in threefold serial dilutions at 10 different concentrations, covering the concentration range from no to full inhibition. Each concentration was measured in duplicates, and two independent determinations were made for each IC50 value. […]

pThr288 Aurora A = assay: Phosphorylation of Aurora A Thr288 in cells; assay type: cell-based, human
Description: as §1
as §2, with “Confocal images were acquired on a Zeiss LSM 710 confocal microscope equipped with a Axiocam MRm (B/VVW) CCD camera using a 63×NA 1.0 oil objective and processed in ImageJ and Adobe Photoshop, maintaining relative image intensities within a series.” left out

HeLa Kyoto cells [3] = assay: Chromosome misalignment during metaphase; assay type: cell-based, human; conditions: HeLa Kyoto cells, 0.25 μM
Description: as §1, §2

[4] = system: Aurora A localization, HeLa Kyoto cells; assay: Aurora A localization at the mitotic spindle (immunofluorescence); assay type: cell-based, human; conditions: overnight
Description: as §1
Secondary antibodies were anti-mouse conjugated to Alexa488 or Alexa568, as well as anti-rabbit conjugated to Alexa488 or Alexa568, all used at 1:500 (Invitrogen). Confocal images were acquired on a Zeiss LSM 710 confocal microscope equipped with a Axiocam MRm (B/VVW) CCD camera using a 63×NA 1.0 oil objective and processed in ImageJ and Adobe Photoshop, maintaining relative image intensities within a series.

O=C(O)[C@]1(Cc2cccc(Nc3nccs3)n2)CC[C@@H](Oc2cccc(Cl)c2F)CC1 [MK-5108]
IC50 (Aurora B (pH3)): > 10000 nM

CCc1ccc(N=C2SC(=Cc3ccnc(Nc4ccc(-c5nn[nH]n5)cc4)c3)C(=O)N2C)cc1 [Compound 88]
tryptophan fluorescence, environment of Trp277 (Aurora A (Trp277)): perturbed the environment of Trp277

COc1cc2c(Nc3ccc(NC(=O)c4ccccc4)cc3)ncnc2cc1OCCCN1CCOCC1 [Compound 94, ZM447439, reference compound]
distribution of phospho-Histone H3 Ser10 [1]: absent
accumulation of cells with 8N and 16N DNA contents (HeLa Kyoto cells [2]): massive accumulation

CCc1ccc(N=C2SC(Cc3ccnc(Nc4ccc(C(=O)O)cn4)c3)C(=O)N2C)cc1 (racemic) [rac-92]
IC50 (Aurora A kinase domain; free Aurora A, 20 μM ATP, HTRF, read-out: IC50 Aurora A (biochemical)): 24 nM
activity in cells (pThr288 Aurora A): did not show any activity
cellular pThr288 Aurora-A levels (pThr288 Aurora A; overnight incubation): does not reduce pThr288 levels

COc1cc(Nc2ncc3c(n2)-c2ccc(Cl)cc2C(c2c(F)cccc2OC)=NC3)ccc1C(=O)O [Compound 1, Alisertib, reference compound]
misaligned chromosomes (HeLa Kyoto cells [3]): ~100%
Aurora A localization at spindle microtubules and centrosomes [4]: present at centrosomes but not on spindle microtubules
Aurora A localization at spindle microtubules and centrosomes ([4]; listed as alisertib): notably displaced from the spindle microtubules

CCc1ccc(N=C2SC(Cc3ccnc(N)c3)C(=O)N2C)cc1 (racemic) [rac-91]
fold less active than precursor 79 (Aurora A kinase domain; Aurora A inhibition relative to 79): 7 fold

CCc1ccc(N=C2SC(=Cc3ccncc3)C(=O)N2CCOC)cc1 [Compound 77]
tryptophan fluorescence, environment of Trp277 (Aurora A (Trp277)): perturbed the environment of Trp277
